Some test systems named below: HT-29; UO-31; SF-268; MOLT-4; UACC-62; HCC 2998; M14; SNB-75; IGROV-1; NCI-H460; T47D; 786-0; SF-539; HOP-92; OVCAR-3; MCF7; CAKI-1; OVCAR-5; K562; SNB-19.
Holding throughout (experiment): NCI anticancer screen, dose series, 48 h

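Five compound concentrations were applied to cells in 96-well plates for 48 hours; endpoints were derived by simple linear interpolation of the resulting dose-response curve. Here, GI50 denotes the concentration required for 50% inhibition of growth.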 Activity calls are given as the source filed them. No stated cut-off is given here; in the data, active = GI50 up to about 1.1 µM and inactive = higher.

Regarding `CCOC(=O)CCC(NC(=O)c1ccc(Nc2nc3ccccc3nc2C(=O)OCC)cc1)C(=O)OCC` (stereo not given), the GI50 in the experiment with HT-29 is 4.67 µM (inactive); in the experiment on UO-31 it was 4.28 µM (inactive); in the experiment on SF-268, 7.71 µM (inactive); in the experiment on MOLT-4, > 100 µM (inactive); with UACC-62, 3.2 µM (inactive); with HCC 2998, > 76 µM (inactive). The GI50 with M14 was 8.89 µM (inactive); with SNB-75, 2.36 µM (inactive); with IGROV-1, 3.54 µM (inactive); in the experiment on NCI-H460, > 72.1 µM (inactive); in the experiment on T47D, 2.18 µM (inactive); in the experiment on 786-0, 1.85 µM (inactive). Besides, the GI50 in the experiment on SF-539 was 2.48 µM (inactive); in the experiment with HOP-92, 3.91 µM (inactive); in the experiment with OVCAR-3, 2.04 µM (inactive); with MCF7, 11.3 µM (inactive); in the experiment on CAKI-1, 5.96 µM (inactive); with OVCAR-5 it was > 28.6 µM (inactive). In addition, the GI50 in the experiment with K562 was > 100 µM (inactive); in the experiment with SNB-19, 3.94 µM (inactive).

As to `CC(C)NC(=O)OCCN=C1c2ccccc2C(Br)C(Br)c2ccccc21` (stereo not given), the GI50 in the experiment with HT-29 is 4.7 µM (inactive); with UO-31 it was 4.21 µM (inactive); in the experiment on SF-268, 14.4 µM (inactive); in the experiment on MOLT-4, 6.19 µM (inactive); with UACC-62, 10.1 µM (inactive); in the experiment with HCC 2998 it was 22.7 µM (inactive). Moreover, the GI50 was 8.65 µM (inactive) in the experiment with M14; 8.04 µM (inactive) in the experiment with SNB-75; 2.66 µM (inactive) with IGROV-1; 10.4 µM (inactive) in the experiment on NCI-H460; 3.25 µM (inactive) in the experiment with T47D; 4.14 µM (inactive) with 786-0. In addition, the GI50 in the experiment with SF-539 was 4.02 µM (inactive); in the experiment on HOP-92, 5.3 µM (inactive); with OVCAR-3 it was 12.1 µM (inactive); with MCF7, 12.1 µM (inactive); in the experiment on CAKI-1, 7.01 µM (inactive); in the experiment on OVCAR-5, 12 µM (inactive). The GI50 is 1.06 µM (active) in the experiment on K562 and 16.1 µM (inactive) with SNB-19.

With `C/C(=N/c1[nH]c(=O)cc2c1C(=O)CC2)N(C)C`, the GI50 with HT-29, in the experiment on UO-31, in the experiment with SF-268, in the experiment with MOLT-4, in the experiment with UACC-62 and in the experiment with HCC 2998 was > 200 µM (inactive) in each case. Also, the GI50 with M14, with SNB-75, with IGROV-1, with NCI-H460, with T47D and with 786-0 was > 200 µM (inactive) throughout. For the same compound, the GI50 in the experiment with SF-539, in the experiment with HOP-92, in the experiment with OVCAR-3, in the experiment with MCF7, with CAKI-1 and in the experiment with OVCAR-5 was > 200 µM (inactive) each time. Moreover, the GI50 with K562 and in the experiment with SNB-19 was > 200 µM (inactive) throughout.

Turning to `COc1ccc(CCNC2=CC(=O)c3ncccc3C2=O)cc1OC`, the GI50 in the experiment on HT-29 was 2.12 µM (inactive); with UO-31, 0.931 µM (active); in the experiment on SF-268 it was 5.18 µM (inactive); with MOLT-4 it was 5.05 µM (inactive); in the experiment on UACC-62 it was 0.435 µM (active); in the experiment with HCC 2998, 1.94 µM (inactive). In addition, the GI50 in the experiment with M14 was 1.15 µM (inactive); in the experiment on SNB-75, 0.748 µM (active); in the experiment with IGROV-1, 1.55 µM (inactive); in the experiment with NCI-H460, 0.394 µM (active); in the experiment with T47D, 5.09 µM (inactive); with 786-0 it was 3.31 µM (inactive). The GI50 in the experiment with SF-539 was 2.07 µM (inactive); in the experiment on HOP-92, 8.95 µM (inactive); in the experiment with OVCAR-3 it was 0.514 µM (active); in the experiment on MCF7, 1.38 µM (inactive); in the experiment on CAKI-1, 1.71 µM (inactive); in the experiment with OVCAR-5, 2.7 µM (inactive). Moreover, the GI50 is 2.24 µM (inactive) with K562 and 1.86 µM (inactive) in the experiment with SNB-19.

On to `CS/C(=N\S(=O)(=O)c1ccc(Cl)cc1)NCCCCN/C(=N/S(=O)(=O)c1ccc(Cl)cc1)SC`, for which the GI50 in the experiment on HT-29 was > 100 µM (inactive); in the experiment with UO-31 it was > 100 µM (inactive); in the experiment with SF-268, 32.5 µM (inactive); with MOLT-4, > 10 µM (inactive); in the experiment with UACC-62, > 100 µM (inactive); in the experiment with HCC 2998, > 100 µM (inactive). For the same compound, the GI50 in the experiment on M14 is > 100 µM (inactive); with SNB-75, > 10 µM (inactive); with IGROV-1 it was 83 µM (inactive); in the experiment with NCI-H460, > 100 µM (inactive); with T47D, > 100 µM (inactive); with 786-0, 44.5 µM (inactive). Also, the GI50 in the experiment on SF-539 was > 100 µM (inactive); in the experiment with HOP-92, 60.1 µM (inactive); in the experiment with OVCAR-3, > 100 µM (inactive); with MCF7 it was > 100 µM (inactive); in the experiment with CAKI-1, > 100 µM (inactive); in the experiment on OVCAR-5, > 100 µM (inactive). The GI50 in the experiment with K562 and in the experiment on SNB-19 was > 100 µM (inactive) in each case.

Take `CCOC(=O)c1cccc(/N=N/c2ncc(/C=C/C(=O)OC)[nH]2)c1`: the GI50 is 23.5 µM (inactive) with HT-29; 18 µM (inactive) with UO-31; 26.8 µM (inactive) in the experiment on SF-268; 6.97 µM (inactive) in the experiment on MOLT-4; 21.5 µM (inactive) in the experiment on UACC-62; 17.9 µM (inactive) with HCC 2998. Also, the GI50 with M14 was 26 µM (inactive); in the experiment on SNB-75, 26.4 µM (inactive); in the experiment with IGROV-1, 20.6 µM (inactive); in the experiment with NCI-H460 it was 14.3 µM (inactive); in the experiment with T47D it was 29.3 µM (inactive); in the experiment on 786-0, 14.6 µM (inactive). The GI50 in the experiment with SF-539 was 21.5 µM (inactive); with HOP-92, 32.1 µM (inactive); in the experiment with OVCAR-3 it was 23.3 µM (inactive); in the experiment with MCF7, 21.6 µM (inactive); with CAKI-1, 14.5 µM (inactive); in the experiment with OVCAR-5, 55 µM (inactive). Besides, the results for the GI50 in the experiment on K562 and in the experiment on SNB-19 were 20.9 µM (inactive) and 34.4 µM (inactive), respectively.

As to `CS/C(=N\C#N)NC1CC(n2cc(C)c(=O)[nH]c2=O)OC1CO` (stereo not given), the GI50 in the experiment on HT-29, in the experiment on UO-31, in the experiment with SF-268, in the experiment on MOLT-4, in the experiment with UACC-62 and with HCC 2998 was > 100 µM (inactive) each time. Also, the GI50 with M14, with SNB-75, in the experiment on IGROV-1, in the experiment with NCI-H460, with T47D and with 786-0 was > 100 µM (inactive) each time. In addition, the GI50 in the experiment with SF-539, in the experiment with HOP-92, with OVCAR-3, with MCF7, in the experiment on CAKI-1 and with OVCAR-5 was > 100 µM (inactive) each time. Also, the GI50 in the experiment with K562 and in the experiment on SNB-19 was > 100 µM (inactive) each time.

These data come from ChEMBL document CHEMBL1201862, “PubChem BioAssay data set” (2004).
